One may read the EC50 as the concentration that produces a half-maximal response. Low readings indicate greater potency, high ones weaker potency.

Sequence of human PD-L1 (Q9NZQ7 19-290): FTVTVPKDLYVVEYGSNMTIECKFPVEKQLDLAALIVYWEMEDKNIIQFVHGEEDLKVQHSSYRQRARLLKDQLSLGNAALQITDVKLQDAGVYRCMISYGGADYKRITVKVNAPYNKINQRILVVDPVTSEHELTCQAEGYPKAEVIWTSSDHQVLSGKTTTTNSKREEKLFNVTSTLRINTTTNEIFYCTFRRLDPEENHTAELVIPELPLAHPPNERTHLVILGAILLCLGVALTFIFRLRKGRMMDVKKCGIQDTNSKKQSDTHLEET

The assay concerns the target human PD-L1 (Homo sapiens (Human), UniProt Q9NZQ7). The assay can be described thus: T cell activation luciferase reporter cell culture system (T Cell Activation Assay). The assay is classed as cell-based. The following applies: luciferase reporter assay; PD-L1 aAPC/CHO-K1 cells with PD-1 effector Jurkat T cells.
Turning to `COc1cc(-c2nccc(-c3cccc(-c4ccc(CNC5CCN(C(=O)CO)CC5)c(OC)n4)c3Cl)c2Cl)ccc1CN[C@H]1CC[C@H](O)CC1` [Example 539, 1-(4-(((6-(2-Chloro-3-(3-chloro-2-(4-((((1r,4r)-4-hydroxycyclohexyl)amino)methyl)-3-methoxyphenyl)pyridin-4-yl)phenyl)-2-methoxypyridin-3-yl)methyl)amino)piperidin-1-yl)-2-hydroxyethan-1-one], a half-maximal response (EC50) required 31.8 nM.

Compound `COc1nc(O[C@H]2CCc3c(-c4nccc(-c5ccc6c(CNC[C@@H]7CCC(=O)N7)cn(C)c6n5)c4Cl)cccc32)c(C(F)(F)F)cc1CNC[C@@H]1CCC(=O)N1` [Example 545, (S)-5-((((6-(3-Chloro-2-((S)-1-((6-methoxy-5-(((((S)-5-oxopyrrolidin-2-yl)methyl)amino)methyl)-3-(trifluoromethyl)pyridin-2-yl)oxy)-2,3-dihydro-1H-inden-4-yl)pyridin-4-yl)-1-methyl-1H-pyrrolo[2,3-b]pyridin-3-yl)methyl)amino)methyl)pyrrolidin-2-one] came in with an EC50 of 21.3 nM.

Consider `COc1nc(-c2ccnc(-c3cccc4c3CC[C@@H]4Oc3nc(OC)c(CNC[C@H](C)O)cc3C(F)(F)F)c2Cl)ccc1CN1CC2(CNC(=O)C2)C1` [Example 553, 2-((3′-Chloro-2′-((S)-1-((5-((((S)-2-hydroxypropyl)amino)methyl)-6-methoxy-3-(trifluoromethyl)pyridin-2-yl)oxy)-2,3-dihydro-1H-inden-4-yl)-6-methoxy-[2,4′-bipyridin]-5-yl)methyl)-2,6-diazaspiro[3.4]octan-7-one], for which the EC50 came out at 53 nM.

In the case of `COc1cc(-c2ncnc(-c3cccc(-c4ccc(CN5CC6(CNC(=O)C6)C5)c(OC)n4)c3Cl)c2Cl)ccc1CN1CC2(CNC(=O)C2)C1` [Example 554, 2-((6-(2-chloro-3-(5-chloro-6-(3-methoxy-4-((7-oxo-2,6-diazaspiro[3.4]octan-2-yl)methyl)phenyl)pyrimidin-4-yl)phenyl)-2-methoxypyridin-3-yl)methyl)-2,6-diazaspiro[3.4]octan-7-one], it took 103 nM to reach a half-maximal effect (EC50).

Turning to `COc1cc(-c2nccc(-c3cccc(-c4ccc5c(CNCC6CCOCC6)cn(C)c5n4)c3Cl)c2Cl)ccc1CNC1CCN(C(C)=O)CC1` [Example 557, 1-(4-((4-(3-chloro-4-(2-chloro-3-(1-methyl-3-((((tetrahydro-2H-pyran-4-yl)methyl)amino)methyl)-1H-pyrrolo[2,3-b]pyridin-6-yl)phenyl)pyridin-2-yl)-2-methoxybenzyl)amino)piperidin-1-yl)ethan-1-one], a half-maximal effect (EC50) was put at 378 nM.

For `COc1cc(-c2nccc(-c3cccc(-c4ccc5c(CNC6CCS(=O)(=O)CC6)cn(C)c5n4)c3Cl)c2Cl)ccc1CNC1CCN(C(C)=O)CC1` [Example 558, 1-(4-((4-(3-Chloro-4-(2-chloro-3-(3-(((1,1-dioxidotetrahydro-2H-thiopyran-4-yl)amino)methyl)-1-methyl-1H-pyrrolo[2,3-b]pyridin-6-yl)phenyl)pyridin-2-yl)-2-methoxybenzyl)amino)piperidin-1-yl)ethan-1-one], the EC50 was not below 10000 nM.

Turning to `COc1nc(-c2cccc(-c3ccnc(-c4ccc5c(c4)S(=O)(=O)CCN(C)C5)c3Cl)c2Cl)ccc1CNC[C@@H]1CCC(=O)N1` [Example 561, (S)-5-((((6-(2-Chloro-3-(3-chloro-2-(4-methyl-1,1-dioxido-2,3,4,5-tetrahydrobenzo[f][1,4]thiazepin-8-yl)pyridin-4-yl)phenyl)-2-methoxypyridin-3-yl)methyl)amino)methyl)pyrrolidin-2-one], the EC50 was not below 10000 nM.

`COc1cc(-c2ncnc(-c3cccc(-c4ccc(CN5CCN(C(C)=O)CC5)c(OC)n4)c3Cl)c2Cl)ccc1CN1CCN(C(C)=O)CC1` [Example 562, 1-(4-((6-(3-(6-(4-((4-acetylpiperazin-1-yl)methyl)-3-methoxyphenyl)-5-chloropyrimidin-4-yl)-2-chlorophenyl)-2-methoxypyridin-3-yl)methyl)piperazin-1-yl)ethan-1-one] came in with an EC50 not below 10000 nM.

Consider `COc1cc(-c2ncnc(-c3cccc(-c4ccc(CN5CC6(CC(O)C6)C5)c(OC)n4)c3Cl)c2Cl)ccc1CN1CC2(CC(O)C2)C1` [Example 568, 2-((6-(2-chloro-3-(5-chloro-6-(4-((6-hydroxy-2-azaspiro[3.3]heptan-2-yl)methyl)-3-methoxyphenyl)pyrimidin-4-yl)phenyl)-2-methoxypyridin-3-yl)methyl)-2-azaspiro[3.3]heptan-6-ol], for which the half-maximal effective concentration (EC50) stood at 187 nM.

Compound `COc1cc(-c2nccc(-c3cccc(-c4ccc(CN5CC6(CC(=O)N(C)C6)C5)c(OC)n4)c3Cl)c2Cl)ccc1CN1CC2(CC(=O)N(C)C2)C1` [Example 571, 2-(4-(3-chloro-4-(2-chloro-3-(6-methoxy-5-((6-methyl-7-oxo-2,6-diazaspiro[3.4]octan-2-yl)methyl)pyridin-2-yl)phenyl)pyridin-2-yl)-2-methoxybenzyl)-6-methyl-2,6-diazaspiro[3.4]octan-7-one] returned an EC50 of 87.5 nM.

`COc1cc(-c2nccc(-c3cccc(-c4ccc(CN5CC6(CNC(=O)C6)C5)c(OC)n4)c3C(F)(F)F)c2Cl)ccc1CN1CC2(CNC(=O)C2)C1` [Example 576, 2-((6-(3-(3-chloro-2-(3-methoxy-4-((7-oxo-2,6-diazaspiro[3.4]octan-2-yl)methyl)phenyl)pyridin-4-yl)-2-(trifluoromethyl)phenyl)-2-methoxypyridin-3-yl)methyl)-2,6-diazaspiro[3.4]octan-7-one] gave an EC50 not below 10000 nM.

In turn, `COc1cc(-c2nccc(-c3cccc(-c4ccc(CN5CC6(C5)CN(C(C)=O)C6)c(OC)n4)c3C(F)(F)F)c2Cl)ccc1CN1CC2(C1)CN(C(C)=O)C2` [Example 577, 1-(6-((6-(3-(2-(4-((6-Acetyl-2,6-diazaspiro[3.3]heptan-2-yl)methyl)-3-methoxyphenyl)-3-chloropyridin-4-yl)-2-(trifluoromethyl)phenyl)-2-methoxypyridin-3-yl)methyl)-2,6-diazaspiro[3.3]heptan-2-yl)ethan-1-one] had an EC50 not below 10000 nM.

Turning to `COc1cc(-c2nccc(-c3cccc(-c4ccc(CNC[C@H](C)O)c(OC)n4)c3C(F)(F)F)c2Cl)ccc1CNC[C@H](C)O` [Example 580, (S)-1-(((6-(3-(3-Chloro-2-(4-((((S)-2-hydroxypropyl)amino)methyl)-3-methoxyphenyl)pyridin-4-yl)-2-(trifluoromethyl)phenyl)-2-methoxypyridin-3-yl)methyl)amino)propan-2-ol], the EC50 is not below 10000 nM.

The compound `COc1cc(-c2ncnc(-c3cccc(-c4ccc(CNCCO)c(OC)n4)c3Cl)c2Cl)ccc1CNCCO` [Example 581, 2-(((6-(2-chloro-3-(5-chloro-6-(4-(((2-hydroxyethyl)amino)methyl)-3-methoxyphenyl)pyrimidin-4-yl)phenyl)-2-methoxypyridin-3-yl)methyl)amino)ethan-1-ol] showed an EC50 of 43.1 nM.

Compound `CCOc1cc(-c2nccc(-c3cccc(-c4ccc(CNC5CCN(C(C)=O)CC5)c(OC)n4)c3Cl)c2Cl)cn2nc(CN[C@H]3CC[C@H](O)CC3)nc12` [Example 583, 1-(4-(((6-(2-Chloro-3-(3-chloro-2-(8-ethoxy-2-((((1r,4r)-4-hydroxycyclohexyl)amino)methyl)-[1,2,4]triazolo[1,5-a]pyridin-6-yl)pyridin-4-yl)phenyl)-2-methoxypyridin-3-yl)methyl)amino)piperidin-1-yl)ethan-1-one] registered an EC50 not below 10000 nM.

`CCOc1cc(-c2nccc(-c3cccc(-c4ccc(CNC5CCN(C(C)=O)CC5)c(OC)n4)c3Cl)c2Cl)cn2nc(CNC3CCN(C(C)=O)CC3)nc12` [Example 585, 1-(4-(((6-(4-(3-(5-(((1-Acetylpiperidin-4-yl)amino)methyl)-6-methoxypyridin-2-yl)-2-chlorophenyl)-3-chloropyridin-2-yl)-8-ethoxy-[1,2,4]triazolo[1,5-a]pyridin-2-yl)methyl)amino)piperidin-1-yl)ethan-1-one] had an EC50 not below 10000 nM.

`CCOc1cc(-c2nccc(-c3cccc(-c4ccc(CNC5CCN(C(C)=O)CC5)c(OC)n4)c3Cl)c2Cl)cn2nc(CN3CC4(CNC(=O)C4)C3)nc12` [Example 586, 2-((6-(4-(3-(5-(((1-Acetylpiperidin-4-yl)amino)methyl)-6-methoxypyridin-2-yl)-2-chlorophenyl)-3-chloropyridin-2-yl)-8-ethoxy-[1,2,4]triazolo[1,5-a]pyridin-2-yl)methyl)-2,6-diazaspiro[3.4]octan-7-one] showed an EC50 of 205 nM.

Turning to `COc1cc(-c2nccc(-c3cccc(-c4ccc(CN[C@H]5CC[C@H](O)CC5)c(OC)n4)c3C(F)(F)F)c2Cl)ccc1CN[C@H]1CC[C@H](O)CC1` [Example 588, (1r,4r)-4-(((6-(3-(3-Chloro-2-(4-((((1r,4r)-4-hydroxycyclohexyl)amino)methyl)-3-methoxyphenyl)pyridin-4-yl)-2-(trifluoromethyl)phenyl)-2-methoxypyridin-3-yl)methyl)amino)cyclohexan-1-ol], the EC50 was not below 10000 nM.

Turning to `COc1cc(-c2ncnc(-c3cccc(-c4ccc(CN5CC6(C5)CN(C(C)=O)C6)c(OC)n4)c3Cl)c2Cl)ccc1CN1CC2(C1)CN(C(C)=O)C2` [Example 589, 1-(6-((6-(3-(6-(4-((6-Acetyl-2,6-diazaspiro[3.3]heptan-2-yl)methyl)-3-methoxyphenyl)-5-chloropyrimidin-4-yl)-2-chlorophenyl)-2-methoxypyridin-3-yl)methyl)-2,6-diazaspiro[3.3]heptan-2-yl)ethan-1-one], the EC50 is not below 10000 nM.

The compound `COc1cc(-c2nccc(-c3cccc(NC(=O)c4ccc(CN5CC6(CNC(=O)C6)C5)cn4)c3C)c2Cl)ccc1CN1CC2(CNC(=O)C2)C1` [Example 590, N-(3-(3-Chloro-2-(3-methoxy-4-((7-oxo-2,6-diazaspiro[3.4]octan-2-yl)methyl)phenyl)pyridin-4-yl)-2-methylphenyl)-5-((7-oxo-2,6-diazaspiro[3.4]octan-2-yl)methyl)picolinamide] displayed an EC50 of 1200 nM.

For `COc1cc(-c2ncnc(-c3cccc(-c4ccc(CN[C@H]5C[C@@H](O)C5)c(OC)n4)c3Cl)c2Cl)ccc1CN[C@H]1C[C@@H](O)C1` [Example 592, (1s,3s)-3-(((6-(2-Chloro-3-(5-chloro-6-(4-((((1s,3s)-3-hydroxycyclobutyl)amino)methyl)-3-methoxyphenyl)pyrimidin-4-yl)phenyl)-2-methoxypyridin-3-yl)methyl)amino)cyclobutan-1-ol], the EC50 worked out at 86.4 nM.

These data come from US20240246964A1 (Arbutus Biopharma Corporation, priority 2021, published 2024).
